Laboratory results: patent US12522597B2, “Methods and compositions for modulating splicing” (Skyhawk Therapeutics, Inc., priority 2019, dated 2026)
Read-outs that look alike come from different tables or passages of the source.

How the values were obtained:
[1] = tested on: Huntingtin (HTT) transcripts; assay: Quantitative splicing assay (HTT), qPCR; assay type: cell-based; details: Homo sapiens, GM04724 (CAG 70/20) Huntington's disease patient lymphoblasts, 24 h
In short: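 Read-out is TaqMan qPCR on cDNA, quantifying inclusion of a cryptic exon within HTT intron 49. Cells were Huntington's patient lymphoblasts GM04724 (CAG 70/20), treated for 24 h at 0.15 nM–2.5 uM compound in 0.1% DMSO.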

mHTT protein = mHTT protein assay (2B7-MW1, Mesoscale Discovery); assay type: cell-based, human; details: GM04724 (CAG 70/20) Huntington's disease patient lymphoblast cells, 48 hours, 2B7-MW1 MSD; read-out: HTT Potency - Protein EC50 mHTT (average)
In short: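 mHTT levels were read with the 2B7-MW1 antibody pair (N17 and polyQ epitopes) on MSD after 48 h dosing, 10 μM–0.6 nM. Cells were GM04724 HD lymphoblasts (CAG 70/20). A replica plate was read by CTG for cell viability.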

[2] = tested on: MDR1-MDCK cell monolayers; assay: MDCK-MDR1 permeability assay (BBB penetration potential); assay type: in vitro ADME; details: dog, MDCK-MDR1, 120 min, 5 μM, pH 7.4
Procedure: (§1) Each determination is performed in duplicate. […] Analytical conditions are outlined below.

MDR1 = assay: as above; assay type: in vitro ADME; details: dog; for efflux ratio at 120 min, 5 μM: MDCK-MDR1, pH 7.4, MDCK-MDR1: Efflux; for Papp A→B at 120 min, 5 μM: MDCK-MDR1, pH 7.4, MDCK-MDR1: Papp A-B; for Papp B→A at 120 min, 5 μM: MDCK-MDR1, pH 7.4, MDCK-MDR1: Papp B-A
Procedure: as §1

[3] = qPCR HTTex49_50, read-out: HTT Potency - Splicing: E49-50 EC50 (average)
[4] = qPCR cryptic exon 49b inclusion, read-out: HTT Potency - Splicing: E49b EC50 (average)

SMILES: Oc1cc(-n2ccc(F)n2)ccc1-c1ccc(O[C@H]2C[C@@H]3CCC[C@@H](N3)[C@H]2F)nn1 (single isomer, unassigned) [115-ENT2]
- EC50 [1, 3]: 16 to 50 nM
- EC50 [1, 4]: 16 to 50 nM
- EC50 (mHTT protein): 0.01 to 15 nM
- MDCK-MDR1: % Recov A-B [2]: 43%
- MDCK-MDR1: % Recov B-A [2]: 67%
- efflux ratio at 120 min, 5 μM (MDR1): 2
- Papp A→B at 120 min, 5 μM (MDR1): 6.9 ×10⁻⁶ cm/s
- Papp B→A at 120 min, 5 μM (MDR1): 12 ×10⁻⁶ cm/s

SMILES: Cn1ccc(-c2ccc(-c3ccc(O[C@H]4C[C@]5(C)CCC[C@@](C)(N5)[C@H]4F)nn3)c(O)c2)cc1=O (single isomer, unassigned) [149-ENT1]
- EC50 [1, 3]: 51 to 100 nM
- EC50 [1, 4]: 16 to 50 nM
- EC50 (mHTT protein): 16 to 50 nM
- MDCK-MDR1: % Recov A-B [2]: 76%
- MDCK-MDR1: % Recov B-A [2]: 79%
- efflux ratio at 120 min, 5 μM (MDR1): 22
- Papp A→B at 120 min, 5 μM (MDR1): 2.23 ×10⁻⁶ cm/s
- Papp B→A at 120 min, 5 μM (MDR1): 48.6 ×10⁻⁶ cm/s

SMILES: Oc1cc(-c2cnccn2)ccc1-c1ccc(O[C@H]2C[C@@H]3CCC[C@@H](N3)[C@H]2F)nn1 (single isomer, unassigned) [79-ENT2]
- EC50 [1, 3]: 51 to 100 nM
- EC50 [1, 4]: 51 to 100 nM
- EC50 (mHTT protein): 101 to 500 nM
- MDCK-MDR1: % Recov A-B [2]: 74%
- MDCK-MDR1: % Recov B-A [2]: 82%
- efflux ratio at 120 min, 5 μM (MDR1): 3
- Papp A→B at 120 min, 5 μM (MDR1): 9.52 ×10⁻⁶ cm/s
- Papp B→A at 120 min, 5 μM (MDR1): 25.8 ×10⁻⁶ cm/s

SMILES: CNC(=O)c1ccc2cc(-c3ccc(O[C@@H]4C[C@H]5CCC[C@H](N5)[C@@H]4F)nn3)c(O)cc2n1 (single isomer, unassigned) [136-ENT2]
- EC50 [1, 3]: 0.01 to 15 nM
- EC50 [1, 4]: 16 to 50 nM
- EC50 (mHTT protein): 0.01 to 15 nM
- MDCK-MDR1: % Recov A-B [2]: 88%
- MDCK-MDR1: % Recov B-A [2]: 93%
- efflux ratio at 120 min, 5 μM (MDR1): 25
- Papp A→B at 120 min, 5 μM (MDR1): 2.1 ×10⁻⁶ cm/s
- Papp B→A at 120 min, 5 μM (MDR1): 52.1 ×10⁻⁶ cm/s

SMILES: Cn1cnc(-c2ccc(-c3ccc(O[C@@H]4C[C@@]5(C)CCC[C@](C)(N5)[C@@H]4F)nn3)c(O)c2)cc1=O (single isomer, unassigned) [139-ENT1]
- EC50 [1, 3]: 16 to 50 nM
- EC50 [1, 4]: 16 to 50 nM
- EC50 (mHTT protein): 0.01 to 15 nM
- MDCK-MDR1: % Recov A-B [2]: 75%
- MDCK-MDR1: % Recov B-A [2]: 75%
- efflux ratio at 120 min, 5 μM (MDR1): 14
- Papp A→B at 120 min, 5 μM (MDR1): 2.36 ×10⁻⁶ cm/s
- Papp B→A at 120 min, 5 μM (MDR1): 32.1 ×10⁻⁶ cm/s

SMILES: Cn1ccc2cc(-c3ccc(O[C@H]4C[C@@H]5CC[C@@H](N5)[C@H]4F)nn3)c(O)cc2c1=O (single isomer, unassigned) [126-ENT1]
- EC50 [1, 3]: 101 to 500 nM
- EC50 [1, 4]: 51 to 100 nM
- EC50 (mHTT protein): 16 to 50 nM
- MDCK-MDR1: % Recov A-B [2]: 100%
- MDCK-MDR1: % Recov B-A [2]: 95%
- efflux ratio at 120 min, 5 μM (MDR1): 14
- Papp A→B at 120 min, 5 μM (MDR1): 3.5 ×10⁻⁶ cm/s
- Papp B→A at 120 min, 5 μM (MDR1): 48.3 ×10⁻⁶ cm/s

SMILES: C[C@]12CC[C@](C)(N1)[C@H](F)[C@H](Oc1ccc(-c3ccc(-c4cn[nH]c4)cc3O)nn1)C2 (single isomer, unassigned) [2-ENT1]
- EC50 [1, 3]: 0.01 to 15 nM
- EC50 [1, 4]: 0.01 to 15 nM
- EC50 (mHTT protein): 0.01 to 15 nM
- MDCK-MDR1: % Recov A-B [2]: 77%
- MDCK-MDR1: % Recov B-A [2]: 89%
- efflux ratio at 120 min, 5 μM (MDR1): 12
- Papp A→B at 120 min, 5 μM (MDR1): 4.15 ×10⁻⁶ cm/s
- Papp B→A at 120 min, 5 μM (MDR1): 50.7 ×10⁻⁶ cm/s

SMILES: Cc1nc(-c2ccc(-c3ccc(O[C@H]4C[C@@H]5CCC[C@@H](N5)[C@H]4F)nn3)c(O)c2)cs1 (single isomer, unassigned) [71-ENT1]
- EC50 [1, 3]: 16 to 50 nM
- EC50 [1, 4]: 16 to 50 nM
- EC50 (mHTT protein): 16 to 50 nM
- MDCK-MDR1: % Recov A-B [2]: 47%
- MDCK-MDR1: % Recov B-A [2]: 60%
- efflux ratio at 120 min, 5 μM (MDR1): 4
- Papp A→B at 120 min, 5 μM (MDR1): 4.96 ×10⁻⁶ cm/s
- Papp B→A at 120 min, 5 μM (MDR1): 18.6 ×10⁻⁶ cm/s

SMILES: Cn1cc(-c2cc(O)c(-c3ccc(O[C@H]4C[C@@H]5CCC[C@@H](N5)[C@H]4F)nn3)cc2F)cn1 (single isomer, unassigned) [82-ENT2]
- EC50 [1, 3]: 0.01 to 15 nM
- EC50 [1, 4]: 0.01 to 15 nM
- EC50 (mHTT protein): 0.01 to 15 nM
- MDCK-MDR1: % Recov A-B [2]: 35%
- MDCK-MDR1: % Recov B-A [2]: 72%
- efflux ratio at 120 min, 5 μM (MDR1): 4
- Papp A→B at 120 min, 5 μM (MDR1): 3.26 ×10⁻⁶ cm/s
- Papp B→A at 120 min, 5 μM (MDR1): 12.8 ×10⁻⁶ cm/s

SMILES: Oc1cc(-c2cn[nH]c2)ccc1-c1ccc(O[C@@H]2C[C@H]3COC[C@H](N3)[C@@H]2F)nn1 (single isomer, unassigned) [123-ENT1]
- EC50 [1, 3]: 101 to 500 nM
- EC50 [1, 4]: 101 to 500 nM
- EC50 (mHTT protein): 101 to 500 nM
- MDCK-MDR1: % Recov A-B [2]: 86%
- MDCK-MDR1: % Recov B-A [2]: 90%
- efflux ratio at 120 min, 5 μM (MDR1): 14
- Papp A→B at 120 min, 5 μM (MDR1): 6.22 ×10⁻⁶ cm/s
- Papp B→A at 120 min, 5 μM (MDR1): 87.8 ×10⁻⁶ cm/s

SMILES: Cn1cc(-c2cc(O)c(-c3ccc(O[C@@H]4C[C@H]5CCC[C@H](N5)[C@@H]4F)nn3)cc2Cl)cn1 (single isomer, unassigned) [120-ENT1]
- EC50 [1, 3]: 16 to 50 nM
- EC50 [1, 4]: 16 to 50 nM
- EC50 (mHTT protein): 16 to 50 nM
- MDCK-MDR1: % Recov A-B [2]: 29%
- MDCK-MDR1: % Recov B-A [2]: 77%
- efflux ratio at 120 min, 5 μM (MDR1): 8
- Papp A→B at 120 min, 5 μM (MDR1): 3.51 ×10⁻⁶ cm/s
- Papp B→A at 120 min, 5 μM (MDR1): 29.7 ×10⁻⁶ cm/s

SMILES: Cn1cc(-c2ccc(-c3ccc(O[C@H]4C[C@H]5CCC[C@H](N5)[C@@H]4F)nn3)c(O)c2)cn1 (single isomer, unassigned) [121-ENT1]
- EC50 [1, 3]: 501 to 10000 nM
- EC50 [1, 4]: 501 to 10000 nM
- EC50 (mHTT protein): 501 to 10000 nM
- MDCK-MDR1: % Recov A-B [2]: 66%
- MDCK-MDR1: % Recov B-A [2]: 73%
- efflux ratio at 120 min, 5 μM (MDR1): 5
- Papp A→B at 120 min, 5 μM (MDR1): 11 ×10⁻⁶ cm/s
- Papp B→A at 120 min, 5 μM (MDR1): 50.3 ×10⁻⁶ cm/s

SMILES: Cn1ccc2cc(-c3ccc(O[C@@H]4C[C@@]5(C)CCC[C@](C)(N5)[C@@H]4F)nn3)c(O)cc2c1=O (single isomer, unassigned) [156-ENT1]
- EC50 [1, 3]: 16 to 50 nM
- EC50 [1, 4]: 16 to 50 nM
- EC50 (mHTT protein): 0.01 to 15 nM
- MDCK-MDR1: % Recov A-B [2]: 86%
- MDCK-MDR1: % Recov B-A [2]: 90%
- efflux ratio at 120 min, 5 μM (MDR1): 11
- Papp A→B at 120 min, 5 μM (MDR1): 4.79 ×10⁻⁶ cm/s
- Papp B→A at 120 min, 5 μM (MDR1): 52.6 ×10⁻⁶ cm/s

SMILES: Cc1ccc(-c2ccc(-c3ccc(O[C@H]4C[C@@H]5CCC[C@@H](N5)[C@H]4F)nn3)c(O)c2)nn1 (single isomer, unassigned) [75-ENT2]
- EC50 [1, 3]: 501 to 10000 nM
- EC50 [1, 4]: 501 to 10000 nM
- EC50 (mHTT protein): 501 to 10000 nM
- MDCK-MDR1: % Recov A-B [2]: 82%
- MDCK-MDR1: % Recov B-A [2]: 78%
- efflux ratio at 120 min, 5 μM (MDR1): 10
- Papp A→B at 120 min, 5 μM (MDR1): 3.96 ×10⁻⁶ cm/s
- Papp B→A at 120 min, 5 μM (MDR1): 39.7 ×10⁻⁶ cm/s

SMILES: Cn1cc(-c2ccc(-c3ccc(O[C@@H]4C[C@@H]5CCC[C@@H](N5)[C@H]4F)nn3)c(O)c2)cn1 (single isomer, unassigned) [121-ENT2]
- EC50 [1, 3]: 501 to 10000 nM
- EC50 [1, 4]: 501 to 10000 nM
- EC50 (mHTT protein): 501 to 10000 nM
- MDCK-MDR1: % Recov A-B [2]: 75%
- MDCK-MDR1: % Recov B-A [2]: 90%
- efflux ratio at 120 min, 5 μM (MDR1): 3
- Papp A→B at 120 min, 5 μM (MDR1): 13.5 ×10⁻⁶ cm/s
- Papp B→A at 120 min, 5 μM (MDR1): 45.9 ×10⁻⁶ cm/s

SMILES: Oc1cc(-c2cn[nH]c2)ccc1-c1ccc(O[C@@H]2C[C@H]3CC(F)(F)[C@@H](C2)N3)nn1 (single isomer, unassigned) [46-ENT2]
- EC50 [1, 3]: 101 to 500 nM
- EC50 [1, 4]: 101 to 500 nM
- EC50 (mHTT protein): 101 to 500 nM
- MDCK-MDR1: % Recov A-B [2]: 72%
- MDCK-MDR1: % Recov B-A [2]: 83%
- efflux ratio at 120 min, 5 μM (MDR1): 3
- Papp A→B at 120 min, 5 μM (MDR1): 14.2 ×10⁻⁶ cm/s
- Papp B→A at 120 min, 5 μM (MDR1): 43.2 ×10⁻⁶ cm/s

SMILES: Cn1ccc2cc(O)c(-c3ccc(O[C@@H]4C[C@@]5(C)CC[C@](C)(N5)[C@@H]4F)nn3)cc2c1=O (single isomer, unassigned) [130-ENT2]
- EC50 [1, 3]: 16 to 50 nM
- EC50 [1, 4]: 16 to 50 nM
- EC50 (mHTT protein): 0.01 to 15 nM
- MDCK-MDR1: % Recov A-B [2]: 78%
- MDCK-MDR1: % Recov B-A [2]: 79%
- efflux ratio at 120 min, 5 μM (MDR1): 5
- Papp A→B at 120 min, 5 μM (MDR1): 9.9 ×10⁻⁶ cm/s
- Papp B→A at 120 min, 5 μM (MDR1): 49.6 ×10⁻⁶ cm/s
